Measurements reported in US7858624B2, “Piperidine and morpholine renin inhibitors” (Vitae Pharmaceuticals, Inc., priority 2006, dated 2010).

Biological target: T1, trypsin-activated recombinant human renin (Homo sapiens, UniProt P00797)
T1 sequence (P00797 67-406): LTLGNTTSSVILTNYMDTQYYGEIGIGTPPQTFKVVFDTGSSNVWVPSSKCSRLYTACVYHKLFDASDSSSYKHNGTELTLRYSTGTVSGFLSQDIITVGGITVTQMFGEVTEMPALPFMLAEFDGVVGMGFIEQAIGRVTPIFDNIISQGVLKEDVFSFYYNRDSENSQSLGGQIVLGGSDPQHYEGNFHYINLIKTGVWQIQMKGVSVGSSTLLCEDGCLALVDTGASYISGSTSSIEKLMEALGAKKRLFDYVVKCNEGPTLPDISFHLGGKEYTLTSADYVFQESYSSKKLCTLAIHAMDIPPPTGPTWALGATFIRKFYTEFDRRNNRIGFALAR
Test: In vitro IC50 for renin, fluorescence increase of internally quenched peptide substrate (protocol of Example 2)
Format: biochemical
Details: protocol described in Example 2; DABCYL/EDANS peptide substrate, pH 7.0, rt
Description: The sequence of this peptide corresponds to the sequence of human angiotensinogen. The following test protocol is used: All reactions are carried out in a flat bottom white opaque microtiter plate. A 4 μL aliquot of 400 μM renin substrate (DABCYL-γ-Abu-Ile-His-Pro-Phe-His-Leu-Val-Ile-His-Thr-EDANS) in 192 μL assay buffer (50 mM BES, 150 mM NaCl, 0.25 mg/mL bovine serum albumin, pH7.0) is added to 4 μL of test compound in DMSO at various concentrations ranging from 10 μM to 1 nM final concentrations. Next, 100 μL of trypsin-activated recombinant human renin (final enzyme concentration of 0.2-2 nM) in assay buffer is added, and the solution is mixed by pipetting. The increase in fluorescence at 495 nm (excitation at 340 nm) is measured for 60-360 min at rt using a Perkin-Elmer Fusion microplate reader. The slope of a linear portion of the plot of fluorescence increase as a function of time is then determined, and the rate is used for calculating percent inhibition in relation to uninhibited control. […] The IC50 is defined as the concentration of a particular inhibitor that reduces the formation of product by 50% relative to a control sample containing no inhibitor. (Wang G. T. et al. Anal. Biochem. 1993, 210, 351; Nakamura, N. et al. J. Biochem. (Toko) 1991, 109, 741; Murakaini, K. et al. Anal Biochem. 1981, 110, 232).

Compound: CCCCNC(=O)C[C@H](O)[C@H](CC1CCCCC1)NC(=O)N1CCC[C@@H]([C@@H](OCCNC(=O)OC)c2cccc(Cl)c2)C1 [Example 1, methyl 2-((R)-((R)-1-((2S,3S)-5-(butylamino)-1-cyclohexyl-3-hydroxy-5-oxopentan-2-ylcarbamoyl)piperidin-3-yl)(3-chlorophenyl)methoxy)ethylcarbamate]
- IC50: 113 nM
